Among the test systems are HL-60(TB) leukemia; NCI/ADR-RES ovarian; NCI-H226 lung; NCI-H522 lung; T-47D breast; MDA-MB-231 breast; A498 renal; NCI-H460 lung; BT-549 breast; OVCAR-3 ovarian.
Experiment in all cases: inhibition of tumour cell growth, NCI panel, 48 h

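Compound exposure: 48 hours, 5 concentrations, 96-well plates. GI50 = concentration required for 50% inhibition of growth. At the TGI there is no net growth.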

On to `CCCCNC(=O)Oc1ccc(/C(=C(/C)Cc2ccc(OC)cc2)c2ccc(OCCN3CCCC3)cc2)cc1`, for which the GI50 in the experiment with HL-60(TB) leukemia is 1.64 µM; in the experiment with NCI/ADR-RES ovarian, 3.11 µM; with NCI-H226 lung it was 3.03 µM; with NCI-H522 lung, 2.02 µM; in the experiment with T-47D breast it was 1.39 µM; with MDA-MB-231 breast it was 1.87 µM. Besides, the GI50 in the experiment on A498 renal is 4.7 µM; in the experiment on NCI-H460 lung, 1.81 µM; in the experiment with BT-549 breast, 1.52 µM; in the experiment with OVCAR-3 ovarian, 1.79 µM. Also, the TGI in the experiment on HL-60(TB) leukemia is 3.82 µM; with NCI/ADR-RES ovarian, 11.6 µM; in the experiment on NCI-H226 lung it was 11.4 µM; in the experiment with NCI-H522 lung, 4.05 µM; in the experiment with T-47D breast, 4.37 µM; with MDA-MB-231 breast, 3.49 µM. For the same compound, the TGI with A498 renal was determined as 18.5 µM; with NCI-H460 lung, 3.34 µM; in the experiment with BT-549 breast it was 2.98 µM; with OVCAR-3 ovarian it was 3.47 µM.
As to `NCCOc1ccccc1/C=C1\c2ccccc2-c2ccc([N+](=O)[O-])cc21`, the GI50 in the experiment with HL-60(TB) leukemia is 1.54 µM; with NCI/ADR-RES ovarian, 1.77 µM; with NCI-H226 lung, 1.73 µM; with NCI-H522 lung it was 1.49 µM; in the experiment on T-47D breast, 1.66 µM; in the experiment with MDA-MB-231 breast, 1.58 µM. The GI50 is 1.44 µM in the experiment on A498 renal, 0.488 µM in the experiment with NCI-H460 lung, 1.5 µM with BT-549 breast and 1.76 µM in the experiment on OVCAR-3 ovarian. Besides, the TGI in the experiment with HL-60(TB) leukemia was 3.07 µM; in the experiment with NCI/ADR-RES ovarian, 3.54 µM; with NCI-H226 lung it was 3.48 µM; in the experiment with NCI-H522 lung it was 3.05 µM; in the experiment with T-47D breast, 3.44 µM; in the experiment with MDA-MB-231 breast, 2.99 µM. For the same compound, the TGI with A498 renal was 2.76 µM; in the experiment with NCI-H460 lung, 1.66 µM; in the experiment on BT-549 breast it was 2.84 µM; with OVCAR-3 ovarian it was 3.17 µM.
In the case of `COc1ccc(/C=C2\CN(Cc3cn(CCNc4ccnc5cc(Cl)ccc45)nn3)C/C(=C\c3ccc(OC)c(OC)c3)C2=O)cc1OC`, the GI50 is 2.42 µM with HL-60(TB) leukemia; over 100 µM in the experiment on NCI/ADR-RES ovarian; 4.04 µM in the experiment on NCI-H226 lung; 2.24 µM in the experiment on NCI-H522 lung; 5.05 µM with T-47D breast; 2.56 µM in the experiment on MDA-MB-231 breast. Besides, the GI50 in the experiment on A498 renal is 2.53 µM; in the experiment on NCI-H460 lung it was 2.22 µM; in the experiment with BT-549 breast, 2.16 µM; with OVCAR-3 ovarian, 2.8 µM. For the same compound, the TGI in the experiment with HL-60(TB) leukemia is 9.37 µM; in the experiment on NCI/ADR-RES ovarian, over 100 µM; in the experiment with NCI-H226 lung, 21 µM; in the experiment on NCI-H522 lung, 6.38 µM; in the experiment with T-47D breast, over 100 µM; in the experiment with MDA-MB-231 breast, 7.68 µM. Further, the TGI was found to be 13.2 µM in the experiment on A498 renal, 5.74 µM with NCI-H460 lung, 4.84 µM with BT-549 breast and 8.57 µM in the experiment on OVCAR-3 ovarian.
Consider `c1cncc(C2Nc3cccc4cccc(c34)N2)c1`, for which the GI50 with HL-60(TB) leukemia is 36.6 µM; in the experiment on NCI/ADR-RES ovarian, 33.8 µM; with NCI-H226 lung, 80.5 µM; with NCI-H522 lung, 14.6 µM; with T-47D breast it was 2.62 µM; in the experiment with MDA-MB-231 breast it was 20.3 µM. Further, the GI50 in the experiment with A498 renal is 30.9 µM; in the experiment with NCI-H460 lung, over 100 µM; in the experiment on BT-549 breast, 29.5 µM; in the experiment with OVCAR-3 ovarian, 17.8 µM. Further, the TGI in the experiment with HL-60(TB) leukemia is over 100 µM; with NCI/ADR-RES ovarian, over 100 µM; in the experiment with NCI-H226 lung, over 100 µM; with NCI-H522 lung, 35.1 µM; in the experiment on T-47D breast, 9.29 µM; with MDA-MB-231 breast, 65.7 µM. Besides, the TGI is over 100 µM with A498 renal, over 100 µM in the experiment on NCI-H460 lung, 95 µM in the experiment on BT-549 breast and 37.1 µM in the experiment on OVCAR-3 ovarian.
Take `Cc1ccc(C2=C(c3ccc(C)cc3)C3(c4ccc(C)cc4)C4C(=O)c5ccccc5C(=O)C4C2(c2ccc(C)cc2)S3=O)cc1` (stereo not drawn): the GI50 in the experiment with NCI/ADR-RES ovarian is over 100 µM; in the experiment with NCI-H226 lung, over 100 µM; with NCI-H522 lung it was over 100 µM; with T-47D breast, 72.4 µM; in the experiment on MDA-MB-231 breast, 60 µM; with A498 renal it was over 100 µM. The GI50 with NCI-H460 lung, in the experiment with BT-549 breast and in the experiment on OVCAR-3 ovarian was over 100 µM in each case. Also, the TGI in the experiment on NCI/ADR-RES ovarian, with NCI-H226 lung, in the experiment on NCI-H522 lung, with T-47D breast, in the experiment on MDA-MB-231 breast and in the experiment with A498 renal was over 100 µM each time. The TGI in the experiment with NCI-H460 lung, in the experiment on BT-549 breast and in the experiment on OVCAR-3 ovarian was over 100 µM each time.
Regarding `COC1C(OC(=O)/C=C/C=C/C=C/C=C\C(=O)O)CCC2(CO2)C1C1(C)OC1CC=C(C)C` (stereo not drawn), the GI50 in the experiment with NCI/ADR-RES ovarian, in the experiment with NCI-H226 lung, in the experiment on NCI-H522 lung, in the experiment on T-47D breast, with MDA-MB-231 breast and in the experiment with A498 renal was over 200 µM in each case. The GI50 in the experiment on NCI-H460 lung, in the experiment on BT-549 breast and in the experiment with OVCAR-3 ovarian was over 200 µM throughout. Moreover, the TGI in the experiment with NCI/ADR-RES ovarian, in the experiment with NCI-H226 lung, in the experiment with NCI-H522 lung, with T-47D breast, in the experiment with MDA-MB-231 breast and with A498 renal was over 200 µM in each case. Also, the TGI with NCI-H460 lung, with BT-549 breast and with OVCAR-3 ovarian was over 200 µM throughout.
`Oc1cccc(/C=N/Nc2nnc(N/N=C/c3cccc(O)c3)c3ccccc23)c1`: the TGI is 60.1 µM in the experiment on NCI/ADR-RES ovarian; 30.7 µM in the experiment on NCI-H226 lung; 53.1 µM with NCI-H522 lung; 61.8 µM with T-47D breast; 35.8 µM in the experiment with MDA-MB-231 breast; over 100 µM with NCI-H460 lung. Besides, the TGI in the experiment with BT-549 breast stood at 44.8 µM; in the experiment with OVCAR-3 ovarian it was 35.8 µM.
With `O=C(O)CCc1c2ccc(=O)c(O)c-2oc2c(O)c(O)ccc12`, the TGI was over 100 µM in the experiment on HL-60(TB) leukemia; over 100 µM with NCI/ADR-RES ovarian; over 100 µM in the experiment on NCI-H522 lung; over 100 µM with T-47D breast; 62.9 µM with MDA-MB-231 breast; over 100 µM with A498 renal. The TGI in the experiment with NCI-H460 lung, in the experiment on BT-549 breast and in the experiment on OVCAR-3 ovarian was over 100 µM each time.
Regarding `COc1c(-c2ccc(O)c(O)c2)oc2c(O)c(O)cc(O)c2c1=O`, the TGI in the experiment on NCI/ADR-RES ovarian, in the experiment on NCI-H226 lung, in the experiment on NCI-H522 lung, in the experiment on T-47D breast, with MDA-MB-231 breast and in the experiment on A498 renal was over 100 µM each time. The TGI with NCI-H460 lung, with BT-549 breast and in the experiment on OVCAR-3 ovarian was over 100 µM each time.
Take `CCCCNC(=O)c1cc(NCc2cc(O)ccc2O)ccc1O`: the GI50 with HL-60(TB) leukemia was 2.06 µM; with NCI/ADR-RES ovarian it was 25 µM; in the experiment with NCI-H522 lung, 1.32 µM; in the experiment on T-47D breast, 6.39 µM; in the experiment with MDA-MB-231 breast, 7.41 µM; in the experiment with A498 renal it was 41.1 µM. The GI50 is 47.3 µM in the experiment with NCI-H460 lung, 3.24 µM in the experiment with BT-549 breast and 4.8 µM with OVCAR-3 ovarian. In addition, the TGI is 6.2 µM in the experiment on HL-60(TB) leukemia; over 100 µM in the experiment with NCI/ADR-RES ovarian; 2.94 µM in the experiment on NCI-H522 lung; 39.1 µM with T-47D breast; 21.7 µM in the experiment with MDA-MB-231 breast; over 100 µM with A498 renal. Also, the TGI in the experiment with NCI-H460 lung was over 100 µM; in the experiment on BT-549 breast it was 13.5 µM; in the experiment on OVCAR-3 ovarian, 17.1 µM.
For the compound `CCCNC(=O)c1ccc(Cl)cc1Cl`, the GI50 in the experiment with HL-60(TB) leukemia, in the experiment on NCI/ADR-RES ovarian, with NCI-H226 lung, in the experiment with T-47D breast, in the experiment on MDA-MB-231 breast and in the experiment with NCI-H460 lung was over 100 µM throughout. Besides, the GI50 in the experiment with BT-549 breast and in the experiment on OVCAR-3 ovarian was over 100 µM in each case. The TGI with HL-60(TB) leukemia, with NCI/ADR-RES ovarian, with NCI-H226 lung, with T-47D breast, in the experiment with MDA-MB-231 breast and in the experiment with NCI-H460 lung was over 100 µM each time. The TGI in the experiment with BT-549 breast and in the experiment on OVCAR-3 ovarian was over 100 µM throughout.
Regarding `C/C=C/[C@H]1O[C@@H]2C(=C[C@H]1O)C(=O)O[C@H]2C`, the GI50 with HL-60(TB) leukemia is 35.7 µM; in the experiment with NCI/ADR-RES ovarian it was 26 µM; with NCI-H226 lung, 18.4 µM; in the experiment on NCI-H522 lung it was 5.02 µM; with T-47D breast, 7.34 µM; in the experiment on MDA-MB-231 breast it was 17.3 µM. In addition, the figures for the GI50 in the experiment with NCI-H460 lung, in the experiment with BT-549 breast and in the experiment on OVCAR-3 ovarian were over 92 µM, 10.5 µM and 18 µM, respectively. Besides, the TGI in the experiment with HL-60(TB) leukemia is over 100 µM; with NCI/ADR-RES ovarian it was over 57 µM; with NCI-H226 lung it was 48.1 µM; in the experiment with NCI-H522 lung it was over 42.9 µM; in the experiment with T-47D breast, 25.5 µM; with MDA-MB-231 breast it was 34.2 µM. Moreover, the TGI with NCI-H460 lung was over 100 µM; with BT-549 breast it was 22.5 µM; in the experiment on OVCAR-3 ovarian, 39.2 µM.
As for `CC(/C=C/c1ccccc1)=N\NC(N)=S`, the TGI in the experiment with HL-60(TB) leukemia is 41.7 µM; in the experiment with NCI/ADR-RES ovarian, 84 µM; with NCI-H226 lung, over 100 µM; in the experiment with T-47D breast it was 49.1 µM; in the experiment on MDA-MB-231 breast, over 100 µM; with A498 renal, 44.5 µM. Besides, the results for the TGI with NCI-H460 lung, in the experiment with BT-549 breast and in the experiment on OVCAR-3 ovarian were over 100 µM, over 100 µM and 66.8 µM, respectively.
